Test results as given in patent US20230295140A1, “INHIBITORS OF VAP-1” (Acucela Inc., priority 2021, published 2023).

Legend:
Assay type in all cases: biochemical
[1] = target: rhVAP-1 (Homo sapiens (Human), UniProt Q16853); experiment: VAP-1 fluorometric assay (Amplex Red/HRP, benzylamine substrate); conditions: class symbols, ranges defined in μM
Method: The capability of compounds described herein to inhibit the enzymatic activity of vascular adhesion protein-1 (VAP-1) was determined by fluorometric assay. The assay procedure provided by R&D Systems was modified slightly for use as an inhibitor screening assay. The assay measured the H2O2 generated from the oxidative deamination of benzylamine by rhVAP-1 by converting Amplex® Red to the fluorescent product, resorufin, via horseradish peroxidase (HRP) and H2O2. Reaction buffer was 10 mM NaHCO3, pH 7.4. A standard curve was prepared by serially diluting H2O2 in reaction buffer. A 10 μM solution of resorufin was prepared in reaction buffer and was dispensed to 2 wells. These wells served as positive control for maximum fluorescence. Reaction buffer was added to the individual wells so that the final volume in each well was 100 μL. Amplex Red was diluted to 1 mM in reaction buffer. A 10 U stock of HRP was prepared in reaction buffer. A reaction cocktail was prepared by mixing equal parts 1 mM Amplex Red with 10 U HRP with 3 parts reaction buffers. The reaction cocktail was added to the appropriate wells, so that that final concentration in the well was 0.05 mM Amplex Red and 0.5 U HRP. A 200 μM solution of benzylamine was prepared in reaction buffer. Benzylamine was added to the appropriate wells so that the final concentration was 50 μM. Inhibitors were diluted in DMSO to 20× and distributed to the appropriate wells. LJP-1207 served a positive control. rhVAP-1 was purchased from R&D Systems. The concentration used for each lot was determined so that the activity was equal to the first lot. Two wells were left blank as controls. The plate was incubated for 30 minutes at 37° C., protected from light under foil. The plate was read at 530/35 emission and 590/35 excitation. Data processing was performed using Excel and Prism software.
The capability of compounds described herein to inhibit the enzymatic activity of vascular adhesion protein-1 (VAP-1) was determined by fluorometric assay. The assay procedure provided by R&D Systems was modified slightly for use as an inhibitor screening assay. The assay measured the H2O2 generated from the oxidative deamination of benzylamine by rhVAP-1 by converting Amplex® Red to the fluorescent product, resorufin, via horseradish peroxidase (HRP) and H2O2. Amplex Red, HRP, Benzylamine, inhibitors (with DMSO as vehicle, 0.5% v/v) and rhVAP-1 were added to the wells. Assay was conducted in 10 mM NaHCO3, pH 7.4. A standard curve was prepared by serially diluting H2O2 in reaction buffer. The plate was incubated for 30 minutes at 37° C., protected from light under foil. The plate was read at 530/35 emission and 590/35 excitation. Data processing was performed using Prism software.

[2] = target: rhMAO-A (Homo sapiens (Human), UniProt P21397); experiment: MAO-Glo assay, MAO-A inhibition
Chain of rhMAO-A (P21397 whole entry): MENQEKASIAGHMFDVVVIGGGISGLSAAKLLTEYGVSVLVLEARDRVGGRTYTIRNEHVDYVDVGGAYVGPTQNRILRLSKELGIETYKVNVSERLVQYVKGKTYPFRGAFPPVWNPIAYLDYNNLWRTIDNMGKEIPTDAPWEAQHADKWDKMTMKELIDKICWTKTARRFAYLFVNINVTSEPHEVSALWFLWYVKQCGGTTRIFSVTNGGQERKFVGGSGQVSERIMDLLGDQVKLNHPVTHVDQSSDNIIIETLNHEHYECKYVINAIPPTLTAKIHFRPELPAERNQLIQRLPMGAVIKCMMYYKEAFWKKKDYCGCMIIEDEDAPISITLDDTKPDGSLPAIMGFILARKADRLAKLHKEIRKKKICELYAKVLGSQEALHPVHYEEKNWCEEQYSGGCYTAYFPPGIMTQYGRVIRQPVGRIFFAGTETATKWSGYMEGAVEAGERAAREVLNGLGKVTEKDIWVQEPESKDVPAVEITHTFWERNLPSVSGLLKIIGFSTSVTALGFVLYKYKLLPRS
Method: (§1) The capability of compounds described herein to inhibit MAO was determined using a modified Promega MAO-Glo™ assay kit. The substrate ((4S)-4,5-dihydro-2-(6-hydroxybenzothiazolyl)-4-thiazolecarboxylic acid) was converted by MAO to produce methyl ester luciferin. The luciferin was then converted by luciferase to produce oxyluciferin and light. The light was measured using a luminescence setting on the plate reader. A standard curve was prepared by serially diluting luciferin in reaction buffer. The standard kit reaction buffer was used—100 mM HEPES (pH 7.5), 5% glycerol. The substrate was dispensed into the wells so that the final concentration for MAO-A inhibition assay would be 10 μM and MAO-B inhibition assay would be […]. Inhibitors were diluted in DMSO to 4× and distributed to the appropriate wells. Clorgyline and Deprenyl served as positive controls. rhMAO-A and rhMAO-B were purchased from Sigma. MAO-A or MAO-B was added to the appropriate wells. The plate was incubated for 1 hour, at room temperature with gentle shaking (90 rpm). The detection agent was added at equal volume (48 μL detection agent to 48 μL reaction). The plate was incubated for 20 minutes, at room temperature with gentle shaking (90 rpm). The plate luminescence was read. Data processing was performed using Prism software.
(§2) The capability of compounds described herein to inhibit MAO was determined using a modified Promega MAO-Glo™ assay. Test compounds, substrate and enzyme were incubated per manufacturer instructions for 1 hour, at room temperature with gentle shaking (90 rpm) before addition of detection agent. The detection agent was added at equal volume (48 μL detection agent to 48 μL reaction). The plate was incubated for 20 minutes, at room temperature with gentle shaking (90 rpm). The plate luminescence was read. Data processing was performed using Prism software.

[3] = target: rhMAO-B (Homo sapiens (Human), UniProt P27338); experiment: MAO-Glo assay, MAO-B inhibition
Chain of rhMAO-B (P27338 whole entry): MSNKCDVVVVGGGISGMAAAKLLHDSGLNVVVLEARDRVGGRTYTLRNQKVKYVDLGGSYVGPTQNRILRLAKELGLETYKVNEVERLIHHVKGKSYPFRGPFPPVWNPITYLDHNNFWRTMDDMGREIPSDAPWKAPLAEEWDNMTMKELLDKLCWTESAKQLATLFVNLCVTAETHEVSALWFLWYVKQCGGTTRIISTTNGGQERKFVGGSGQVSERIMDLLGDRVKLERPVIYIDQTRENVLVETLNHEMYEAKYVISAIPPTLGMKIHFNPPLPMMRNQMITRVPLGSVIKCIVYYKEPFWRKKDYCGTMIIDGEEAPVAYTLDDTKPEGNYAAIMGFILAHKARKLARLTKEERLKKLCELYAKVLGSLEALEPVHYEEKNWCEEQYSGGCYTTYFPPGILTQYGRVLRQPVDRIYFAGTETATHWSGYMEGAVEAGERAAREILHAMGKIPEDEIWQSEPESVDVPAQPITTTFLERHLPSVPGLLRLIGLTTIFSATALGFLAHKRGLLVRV
Method: as §1, §2

[4] = class symbols, ranges defined in μM

Chain of rhVAP-1 (Q16853 whole entry): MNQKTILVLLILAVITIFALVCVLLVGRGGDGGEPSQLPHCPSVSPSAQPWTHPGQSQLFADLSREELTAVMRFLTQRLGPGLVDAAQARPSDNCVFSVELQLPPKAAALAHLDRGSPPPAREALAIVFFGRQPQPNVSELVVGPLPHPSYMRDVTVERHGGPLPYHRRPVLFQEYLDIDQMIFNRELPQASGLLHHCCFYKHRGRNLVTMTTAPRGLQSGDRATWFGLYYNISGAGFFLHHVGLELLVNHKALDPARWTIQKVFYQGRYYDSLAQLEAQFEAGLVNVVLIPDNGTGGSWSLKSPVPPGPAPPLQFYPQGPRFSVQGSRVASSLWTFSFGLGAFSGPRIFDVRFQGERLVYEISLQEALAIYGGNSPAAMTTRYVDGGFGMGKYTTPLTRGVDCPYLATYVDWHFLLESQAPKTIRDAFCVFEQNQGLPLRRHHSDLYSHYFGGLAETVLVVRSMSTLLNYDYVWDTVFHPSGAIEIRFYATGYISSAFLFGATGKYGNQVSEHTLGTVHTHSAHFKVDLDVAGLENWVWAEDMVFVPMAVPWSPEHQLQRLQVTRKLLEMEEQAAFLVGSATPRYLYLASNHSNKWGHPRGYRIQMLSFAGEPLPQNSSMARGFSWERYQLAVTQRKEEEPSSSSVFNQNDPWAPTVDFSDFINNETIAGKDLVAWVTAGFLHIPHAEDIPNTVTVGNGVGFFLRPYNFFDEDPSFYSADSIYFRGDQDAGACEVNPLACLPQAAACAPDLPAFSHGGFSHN

SMILES	IC50 [1] [µM]	IC50 [2, 4] [µM]	IC50 [3, 4] [µM]	IC50 ([2]; bound printed in cell) [µM]	IC50 ([3]; bound printed in cell) [µM]
NC/C(=C/F)COc1ccc2nc(NCc3ccnc(C(F)(F)F)c3)oc2c1 [Example 62, (Z)-6-((2-(aminomethyl)-3-fluoroallyl)oxy)-N-((2-(trifluoromethyl)pyridin-4-yl)methyl)benzo[d]oxazol-2-amine 4-methylbenzenesulfonate]	< 0.1	10 to 30	1 to 10		
NC/C(=C\F)COc1ccc2nc(C34CC5CC(CC(C5)C3)C4)oc2c1 [Example 54, (E)-2-(((2-((3r,5r,7r)-adamantan-1-yl)benzo[d]oxazol-6-yl)oxy)methyl)-3-fluoroprop-2-en-1-amine 4-methylbenzenesulfonate]	< 0.1	1 to 10	1 to 10		
CCCCc1nc2ccc(OCCC(=CF)CN)cc2o1 [Example 38, 4-((2-butylbenzo[d]oxazol-6-yl)oxy)-2-(fluoromethylene)butan-1-amine 4-methylbenzenesulfonate]	< 0.1	0.1 to 1	< 0.1		
CC(C)(Nc1nc2ccc(OC/C(=C/F)CN)cc2o1)c1ccccc1 [Example 48, (E)-6-((2-(aminomethyl)-3-fluoroallyl)oxy)-N-(2-phenylpropan-2-yl)benzo[d]oxazol-2-amine 4-methylbenzenesulfonate]	< 0.1	10 to 30	10 to 30		
NC/C(=C/F)COc1ccc2nc(NC3CCC(O)CC3)oc2c1 (stereo not drawn) [Example 78, (Z)-4-((6-((2-(aminomethyl)-3-fluoroallyl)oxy)benzo[d]oxazol-2-yl)amino)cyclohexan-1-ol 4-methylbenzenesulfonate]	< 0.1		1 to 10	> 50	
CCCNc1nc2ccc(OC/C(=C\F)CN)cc2s1 [Example 12, (Z)-6-((2-(aminomethyl)-3-fluoroallyl)oxy)-N-propylbenzo[d]thiazol-2-amine 4-methylbenzenesulfonate]	< 0.1	1 to 10	1 to 10		
NC/C(=C\F)COc1ccc2nc(C34CCC(CC3)CC4)oc2c1 [Example 34, (E)-2-(((2-(bicyclo[2.2.2]octan-1-yl)benzo[d]oxazol-6-yl)oxy)methyl)-3-fluoroprop-2-en-1-amine 4-methylbenzenesulfonate]	< 0.1	10 to 30	0.1 to 1		

The next lines start with the values.

IC50 [1] [µM]	IC50 [2, 4] [µM]	IC50 [3, 4] [µM]	IC50 ([2]; bound printed in cell) [µM]	IC50 ([3]; bound printed in cell) [µM]	SMILES
1 to 10	1 to 10	1 to 10			CC(C)(C)CNc1nc2ccc(OC/C(=C/F)CN)cc2o1 [Example 59, (E)-6-((2-(aminomethyl)-3-fluoroallyl)oxy)-N-neopentylbenzo[d]oxazol-2-amine (4-methylbenzenesulfonate)]
< 0.1		1 to 10	> 50		COCCNc1nc2ccc(OC/C(=C\F)CN)cc2o1 [Example 61, (Z)-6-((2-(aminomethyl)-3-fluoroallyl)oxy)-N-(2-methoxyethyl)benzo[d]oxazol-2-amine 4-methylbenzenesulfonate]
< 0.1	1 to 10	0.1 to 1			CC(C)(C)CCCc1nc2ccc(OC/C(=C/F)CN)cc2o1 [Example 51, (E)-2-(((2-(4,4-dimethylpentyl)benzo[d]oxazol-6-yl)oxy)methyl)-3-fluoroprop-2-en-1-amine 4-methylbenzenesulfonate]
< 0.1			> 50	> 50	CNC(=O)CN(C)c1nc2ccc(OC/C(=C\F)CN)cc2o1 [Example 72, (Z)-2-((6-((2-(aminomethyl)-3-fluoroallyl)oxy)benzo[d]oxazol-2-yl)(methyl)amino)-N-methylacetamide 4-methylbenzenesulfonate]
< 0.1		10 to 30	> 50		CNC(=O)C(Cc1ccccc1)Nc1nc2ccc(OC/C(=C\F)CN)cc2o1 (stereo not drawn) [Example 56, (Z)-2-((6-((2-(aminomethyl)-3-fluoroallyl)oxy)benzo[d]oxazol-2-yl)amino)-N-methyl-3-phenylpropanamide 4-methylbenzenesulfonate]
